US4346103A, “Treatment for arthritis and substances for use in such treatment” (priority 1976, dated 1982)

What was measured:
[1] = cited from earlier work
[2] = test system: NADH-dehydrogenase complex; settings: interferes with redox function of NADH-dehydrogenase complex, thus mitochondrial oxidations; cited from earlier work
[3] = adhesion to intestinal mucosa / absorption; assay type: in vivo; settings: rhein found to adhere, should thus be relatively poorly absorbed
[4] = clinical trials in MS and ALS patients; assay type: in vivo, human; settings: patients suffering from MS and ALS
From the text: Clinical trials are being carried out in which patients suffering from MS and ALS are being treated with diacetylrhein.

[5] = treatment of an ALS patient; assay type: in vivo, human; settings: one patient, fairly advanced stage; six months; daily doses increasing up to 150 mg
Method: A human patient suffering from ALS in a fairly advanced stage was treated with diacetylrhein over a period of six months. The diacetylrhein was ingested in daily doses increasing up to 150 mg daily.

treatment of MS patients = assay type: in vivo; settings: four human patients; two daily doses of 50 mg, ingested
Method: Four human patients suffering from MS were treated with diacetylrhein. They were treated by ingesting two daily doses of 50 mg diacetylrhein.

[6] = human ingestion of diacetylrhein for 15 months, side effects; assay type: in vivo; settings: about 100 mg per day
Method: (§1) A human patient having severe osteoarthritis (established by X-ray, CSF and rheumatoid factor assessments) across the lower back was treated with diacetylrhein. The patient had greatly restricted torsal rotation and a notable pain in their back and legs after remaining seated for 30 to 60 minutes. The patient was treated by ingesting two daily doses of 50 mg of diacetylrhein.

[7] = side effects in all clinical trials to date; assay type: in vivo, human
From the text: In all clinical trials carried out to date with diacetylrhein side effects have been unsignificant.

[8] = acute toxicity trial in mice; assay type: in vivo; settings: 26 mice; doses up to about 3000 mg per kg per day
Method: In an acute toxicity trial, 1,8-diacetoxy-3-carboxyanthraquinone (diacetylrhein) was administered to 26 mice in doses of up to about 3000 mg per kg per day.

[9] = treatment of patients with rheumatoid arthritis of the hands; assay type: in vivo, human; settings: three cases; 50 mg twice daily for between five and ten days
Method: In three cases, patients with rheumatoid arthritis of the hands, having swollen fingers and painful joints, were treated with 50 mg of diacetylrhein, twice daily for between five and ten days.

[10] = treatment of osteoarthritis patients; assay type: in vivo, human; settings: one patient, severe osteoarthritis across lower back
Method: as §1

[11] = clinical tests on arthritis patients; assay type: in vivo, human
From the text: Clinical tests have been carried out on arthritis patients with extremely encouraging results.

[12] = two daily doses of 50 mg, ingested

SMILES	toxicity ([1]; oral ingestion)	side-effects on long-term intake ([1]; taken for long periods of time, in the dosage required)	inhibition of NADH-linked oxidation [2]	adhesion to the intestinal mucosa [3]	results of clinical trials [4]	deterioration: unsteadiness of gait and weakness of voice [5]	stabilisation of condition [5]	pain and limb unsteadiness (treatment of MS patients)	untoward effects [6]	side effects ([7]; all clinical trials carried out to date)	only side effect encountered ([7]; all clinical trials to date, eliminated by reducing the dosage)	deaths [8]	finger thickness (swelling) [9]	pain in the joints [9]	condition with continued treatment ([10]; continued treatment)	onset of effect [10, 12]	pain, torsal rotation and early morning stiffness [10, 12]	failure to respond to treatment ([11]; arthritis patients)	need for Charnley Hip Operation ([11]; patients with arthritis of the hip)
O=C(O)c1cc(O)c2c(c1)C(=O)c1cccc(O)c1C2=O [Rhein, 1,8-dihydroxyanthra-quinone-3-carboxylic acid]	relatively non-toxic	without any apparent side-effects	inhibitor of NADH-linked oxidation	adheres strongly to the intestinal mucosa	–	–	–	–	–	–	–	–	–	–	–	–	–	–	–
CC(=O)Oc1cccc2c1C(=O)c1c(OC(C)=O)cc(C(=O)O)cc1C2=O [diacetylrhein, 1,8-diacetoxy-3-carboxyanthraquinone]	–	–	–	–	most encouraging	substantially inhibited	substantially stabilised	The pain and a large part of the limb unsteadiness disappeared within seven to ten days of initiating treatment	No untoward effects were noted	unsignificant	some diarrhoea	None of the mice died	The fingers rapidly returned to normal thickness	the pain in the joints disappeared and was absent even when these were submitted to pressure	maintained their improved condition	An effect was noted on the fourth and fifth days	became pain free with restored torsal rotation and without early morning stiffness	There has almost never been a failure to respond to this treatment	sufficient progress for this to be unnecessary
